# Experimental data as given in paper PMC11546719, “Immune Modulatory Profile of the Pateamines PatA and Des-Methyl Des-Amino PatA” (International Journal of Molecular Sciences, 2024).
# Columns and labels:
# [1] = test system: TK6 cells; test: Micronuclei assay; assay type: cell-based, human; details: 4 h incubation then 44 h
# Method: The In-Vitro Micronuclei Plus assay (Becton Dickinson, Heidelberg, Germany) was performed as described by the supplier. Briefly, 2 × 10^4 TK6 cells were incubated with increasing concentrations of PatA, DMDA and silvestrol for 4 h. The cells were washed with PBS and incubated in fresh medium (without test substance) for 44 h. The cells were centrifuged (300× g) for 5 min, the […] and placed on ice for 20 min. Then, 50 µL of Complete Nucleic Acid Dye A Solution was added. The plate was placed on ice and exposed to visible light for 30 min. The Nucleic Acid Dye A solution was removed and the cells were washed with 0.15 mL of cold 1x Buffer Solution. An amount of 100 µL Complete Lysis Solution 1 was added, followed by gently mixing of the plate for 5 s and incubation of 1 h in the dark at 37 °C. Then, 100 µL Complete Lysis Solution 2 was added and incubated for 30 min in the dark at room temperature. The cells were analyzed via flow cytometry with the MACSQuant 10 (Miltenyi GmbH, Bergisch Gladbach, Germany).
# [2] = test system: Human primary T cells; test: T cell activation with anti-CD3/anti-CD28; assay type: cell-based; details: for Number of activated cells (CD3+CD25+CD69+ cells) / Proliferation rate (CTV) / Surface marker expression (CD69, CD154, CD134, CD25, CD18, CD49a, CD54) / Apoptosis (zombie staining) / Cytokine release (IL-17A, IL-10, IFN-γ): activated T cells, 5 days; for Apoptosis (zombie staining): 0.25-0.5 nM; for Cytokine release (IL-17A, IL-10, IFN-γ): CBA; for Effect on the release of inflammatory markers, T Cells: summary table
# Method: T cells were activated as previously described. Briefly, 1.75 × 10^5 T cells (stained with 0.2 µM CellTrace^TM violet (CTV) (ThermoFisher Scientific, Schwerte, Germany)) per well were pretreated with PatA (0.25, 0.5 nM), DMDA (0.25, 0.5 nM) or vehicle (DMSO) for 30 min in RPMI 1640 medium supplemented with 2 mM glutamine, 50 Units/mL IL-2, 1% penicillin/streptomycin and 10% FCS. Afterwards, they were seeded in CD3-coated 96-well plates and stimulated with 2 µg/mL CD28 for 5 days. CTV staining was performed according to the protocol of supplier.
# Surface marker analysis was performed as described previously. Briefly, 1.5–2 × 10^5 cells of each sample were blocked with human FcR Blocking Reagent (15 min, 4 °C). A Zombie Aqua™ Fixable Viability Kit (1:500 dilution, BioLegend, San Diego, CA, USA) was used according to the manufactory protocol to discriminate living and dead cells. Afterwards, samples were stained with a mixture of different surface marker antibodies (15 min, 4 °C) and measured with MACSQuant® Analyzer 10 flow cytometer. For M1-/M2-MdMs anti-CD86, anti-CD14, anti-HLA-DR, anti-CD206, anti-CD80, anti-TREM2 and anti-CD163 were used. For T cells, anti-CD69, anti-CD54, anti-CD49a, anti-CD18, anti-CD134, anti-CD154, anti-CD3 and anti-CD25 were analyzed. For B cells, anti-CD27, anti-CD19 and anti-CD38 were applied. For T cell and B cell proliferation assay, freshly isolated T and B cells were stained with CTV and detected using flow cytometry. Naïve B cells were characterized as CD19^+CD27^lowCD38^med, memory B cells as CD19^+CD27^med CD38^low and plasma cells as CD27^+CD38^+ cells. M1 MdMs and M2 MdMs cell population was gated using FSC/SSC channel. T cells were gated as CD3^+CD25^+ positive cells. The geometric mean of the fluorescent intensity was calculated using FlowJo software v10 (Treestar, Ashland, […], USA). Fold induction of surface marker expression was calculated using the DMSO-treated cells as the control.
# For determination of cytokine concentrations in the supernatant of humane immune cells, cytometric bead array (BD Biosciences, Heidelberg, Germany) for IL-10, IL-17, IL-8, IL-6, IFN-γ and CCL2 was used. For the detection of CCL18, CCL17, IgG, IgA and PGE2, an ELISA was performed. The cytometric bead arrays and the ELISAs were performed according to the protocol of the supplier.
# [3] = test system: Salmonella typhimurium strain TA100; test: Ames MPF test, strain TA100; assay type: cell-based; details: TA100, with and without S9, 10-250 nM
# Method: (§1) The Ames MPF 98/100 test (Xenometrix, Allschwil, Switzerland) was performed as recommended by the supplier and recently published. Briefly, two bacteria strains incapable of producing histidine (Salmonella typhimurium strains TA98 and TA100) were used. Liver homogenate S9 was applied to simulate the metabolic conversions of PatA and DMDA. After exposure to increasing concentrations of PatA (0, 10, 50, 250 nM), DMDA (0, 10, 50, 250 nM) or with positive controls (2 μg/mL for 2-NF (TA98), 2.5 μg/mL for 4-NQO (TA100), 63 μg/mL (TA100 with SF9) and 25 µg/mL (TA98 with SF9) for 2-AA), the cultures were diluted in pH indicator medium lacking histidine and incubated for two days. Cells that had undergone reversion to amino acid prototrophy grew into colonies and bacterial metabolism reduced the pH of the medium, changing the color of that well. Revertant colony numbers of each well were counted and related to the negative control (DMSO). The experiment was conducted once in triplicate. The Ames MPF calculation sheet provided by Xenometrix was used for data analysis. Fold induction over the baseline was calculated as the ratio of the mean number of positive wells to the baseline. The baseline was obtained by adding one standard deviation to the mean number of positive wells of the solvent control. Compounds with mutagenic potential were characterized by revertant numbers above the baseline.
# [4] = test system: Caco-2 cell barrier; test: Transport assay, Caco-2 cell barrier; assay type: in vitro ADME; details: for Permeability / transport rate across Caco-2 cell barrier (in words): 4 and 24 h, PatA, DMDA 5, 50, 100 nM, controls 200 µM
# Method: The transport assay was achieved as described previously. Briefly, 1 × 10^5 CaCo-2 or 5 × 10^4 Calu-3 cells in 300 µL medium were seeded on 24-well ThinCerts (pre-coated with FCS for 60 min) and in the lower compartment, 1 mL culture medium per well was added. The Caco-2 cell barrier was generated over 20 days and the Calu-3 barrier was generated over 14 days. DMDA (0 nM, 5 nM, 50 nM, 100 nM), PatA (0 nM, 5 nM, 50 nM, 100 nM), 200 µM famotidine, 200 µM lucifer yellow or 200 µM carbamazepine diluted in medium was added to the apical compartment and incubated for 4 h or 24 h. The medium from the basolateral and apical compartment was collected and stored at −20 °C and analyzed using LC-MS/MS. To obtain the transport rate, the drug amount in the basolateral compartment at 4 h or 24 h was related to the drug amount in the apical compartment (0 h).
# The detailed method for the analysis of DMDA, PatA, carbamazepine and famotidine using LC-MS/MS is described in the Supplementary Materials.
# [5] = test system: Salmonella typhimurium strain TA98; test: Ames MPF test, strain TA98; assay type: cell-based; details: TA98, with and without S9, 10-250 nM
# Method: as §1
Compound,Genotoxic potential: micronuclei (clastogenic) and hypodiploid cells (aneugenic) [1],Number of activated cells (CD3+CD25+CD69+ cells) [2],Proliferation rate (CTV) [2],"Surface marker expression (CD69, CD154, CD134, CD25, CD18, CD49a, CD54) [2]",Apoptosis (zombie staining) [2],"Cytokine release (IL-17A, IL-10, IFN-γ) [2]","Effect on the release of inflammatory markers, T Cells [2]",Mutagenic potential (Ames test) [3],"Transport rate with Caco-2 cell barrier ([4]; 100 nM, 24 h)",Permeability / transport rate across Caco-2 cell barrier (in words) [4],Mutagenic potential (Ames test) [5],Genotoxic potential: micronuclei (clastogenic) and hypodiploid cells (aneugenic) ([1]; 10 nM)
"CC(/C=C/C(C)=C/[C@@H]1Cc2nc(cs2)CCCCC(=O)O[C@@H](C)C/C(C)=C/C=C\C(=O)O1)=C\CN(C)C [DMDA, des-methyl des-amino pateamine A]",induced neither clastogenic nor aneugenic effects,did not influence the number of activated cells,Neither had any effects,Neither had any effects,showed no apoptotic effects,Neither had any effects,No effect,negative in all Ames mutagenic assays,about 6%,exhibited low permeability,negative in all Ames mutagenic assays,
"CC(/C=C/C(C)=C/[C@@H]1Cc2nc(cs2)[C@@H](C)C[C@@H](N)CC(=O)O[C@@H](C)C/C(C)=C/C=C\C(=O)O1)=C\CN(C)C [PatA, pateamine A]",,did not influence the number of activated cells,Neither had any effects,Neither had any effects,showed no apoptotic effects,Neither had any effects,No effect,negative in all Ames mutagenic assays,,no permeability was detected,negative in all Ames mutagenic assays,induced clastogenic effects
